Several values for one entry are separate records, joined by “and”; a condition that tells them apart may be missing. Equal values may be shown once. Inconclusive results and toxic doses are left out. No stated cut-off is given here; in the data, active means T/C of 150% or more; inactive means T/C below 125%.
Test system: L1210 leukemia ip in BDF1 mice, survival T/C
Experiment: NCI In Vivo Anticancer Drug Screen. Data for tumor model L1210 Leukemia (intraperitoneal) in B6D2F1 (BDF1) mice
Details: endpoint: mean survival time, higher = longer survival
Method in brief: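 Tumor was transplanted into mice, which were then dosed with test compound or vehicle alone. Survival was recorded for each group, and the treated figure was expressed relative to the control figure.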

[1] = dose: 100.0 mg/kg/injection, schedule: Q01DX009 (ip), vehicle: Klucel (hydroxypropylcellulose) (HPC)
[2] = dose: 100.0 mg/kg/injection, schedule: Q04DX003 (ip), vehicle: Klucel (hydroxypropylcellulose) (HPC)
[3] = dose: 200.0 mg/kg/injection, schedule: Q01DX009 (ip), vehicle: Klucel (hydroxypropylcellulose) (HPC)
[4] = dose: 200.0 mg/kg/injection, schedule: Q04DX003 (ip), vehicle: Klucel (hydroxypropylcellulose) (HPC)
[5] = dose: 400.0 mg/kg/injection, schedule: Q04DX003 (ip), vehicle: Klucel (hydroxypropylcellulose) (HPC)
[6] = dose: 100.0 mg/kg/injection, schedule: Q04DX002 (ip), vehicle: Klucel (hydroxypropylcellulose) (HPC)
[7] = dose: 200.0 mg/kg/injection, schedule: Q04DX002 (ip), vehicle: Klucel (hydroxypropylcellulose) (HPC)
[8] = dose: 400.0 mg/kg/injection, schedule: Q04DX002 (ip), vehicle: Klucel (hydroxypropylcellulose) (HPC)
[9] = dose: 75.0 mg/kg/injection, schedule: Q04DX003 (ip), vehicle: saline with Tween-80
[10] = dose: 75.0 mg/kg/injection, schedule: Q01DX001 (ip), vehicle: saline
[11] = dose: 150.0 mg/kg/injection, schedule: Q01DX001 (ip), vehicle: saline
[12] = dose: 12.5 mg/kg/injection, schedule: Q01DX009 (ip), vehicle: saline
[13] = dose: 25.0 mg/kg/injection, schedule: Q01DX009 (ip), vehicle: saline
[14] = dose: 50.0 mg/kg/injection, schedule: Q01DX009 (ip), vehicle: saline

Measured: T/C

CCN(CCNC(=O)NC(C)(C)C)c1ccccc1
inactive: dose: 100.0 mg/kg/injection, schedule: Q01DX009 (ip), vehicle: saline with Tween-80 115 % of control and 91 % of control | dose: 100.0 mg/kg/injection, schedule: Q04DX002 (ip), vehicle: saline with Tween-80 96 % of control and 100 % of control | dose: 100.0 mg/kg/injection, schedule: Q04DX003 (ip), vehicle: saline with Tween-80 97 % of control | dose: 200.0 mg/kg/injection, schedule: Q01DX009 (ip), vehicle: saline with Tween-80 97 % of control and 91 % of control | dose: 200.0 mg/kg/injection, schedule: Q04DX002 (ip), vehicle: saline with Tween-80 96 % of control and 97 % of control | dose: 200.0 mg/kg/injection, schedule: Q04DX003 (ip), vehicle: saline with Tween-80 106 % of control | dose: 400.0 mg/kg/injection, schedule: Q01DX009 (ip), vehicle: saline with Tween-80 97 % of control and 88 % of control | dose: 400.0 mg/kg/injection, schedule: Q04DX002 (ip), vehicle: saline with Tween-80 94 % of control and 89 % of control | dose: 400.0 mg/kg/injection, schedule: Q04DX003 (ip), vehicle: saline with Tween-80 92 % of control

CC(=O)Nc1cc(C)c(C)cc1[N+](=O)[O-]
inactive: [1] 102 % of control | [2] 96 % of control | [3] 100 % of control | [4] 102 % of control | dose: 400.0 mg/kg/injection, schedule: Q01DX009 (ip), vehicle: Klucel (hydroxypropylcellulose) (HPC) 105 % of control | [5] 103 % of control

COc1cc(OC)c(/C=C/c2ccc3ccccc3[n+]2[O-])c(OC)c1
inactive: dose: 100.0 mg/kg/injection, schedule: Q04DX002 (ip), vehicle: gum acacia 95 % of control | dose: 200.0 mg/kg/injection, schedule: Q04DX002 (ip), vehicle: gum acacia 95 % of control | dose: 400.0 mg/kg/injection, schedule: Q04DX002 (ip), vehicle: gum acacia 100 % of control

O=C1c2cccc(Cl)c2C(=O)c2c(Cl)cccc21
inactive: [6] 100 % of control and 91 % of control | [7] 94 % of control | [8] 102 % of control and 113 % of control

O=C1OC(=O)c2ccc(Sc3ccccn3)c3cccc1c23
inactive: dose: 100.0 mg/kg/injection, schedule: Q04DX003 (ip), vehicle: carboxymethylcellulose (CMC) 93 % of control | dose: 200.0 mg/kg/injection, schedule: Q04DX003 (ip), vehicle: carboxymethylcellulose (CMC) 88 % of control | dose: 400.0 mg/kg/injection, schedule: Q04DX003 (ip), vehicle: carboxymethylcellulose (CMC) 93 % of control

Cc1ccc(C(=O)NS(=O)(=O)c2ccc(C)cc2)cc1
inactive: [1] 91 % of control | [2] 101 % of control | [3] 105 % of control | [4] 103 % of control | [5] 104 % of control

O=C(NCCc1ccccc1)Nc1ccccc1
inactive: dose: 75.0 mg/kg/injection, schedule: Q01DX009 (ip), vehicle: saline with Tween-80 100 % of control | [9] 92 % of control | dose: 150.0 mg/kg/injection, schedule: Q01DX009 (ip), vehicle: saline with Tween-80 90 % of control | dose: 150.0 mg/kg/injection, schedule: Q04DX003 (ip), vehicle: saline with Tween-80 91 % of control | dose: 300.0 mg/kg/injection, schedule: Q01DX009 (ip), vehicle: saline with Tween-80 88 % of control | dose: 300.0 mg/kg/injection, schedule: Q04DX003 (ip), vehicle: saline with Tween-80 89 % of control

O=C(NCCCCCCCCCNC(=O)Nc1ccc(C2=NCCCN2)cc1)Nc1ccc(C2=NCCCN2)cc1
inactive: dose: 3.75 mg/kg/injection, schedule: Q01DX Z (ip), vehicle: carboxymethylcellulose (CMC) 91 % of control | dose: 7.5 mg/kg/injection, schedule: Q01DX Z (ip), vehicle: carboxymethylcellulose (CMC) 98 % of control | dose: 15.0 mg/kg/injection, schedule: Q01DX Z (ip), vehicle: carboxymethylcellulose (CMC) 122 % of control

CCCCN(CCCC)C(=O)c1ccccc1C(=O)O
inactive: [10] 95 % of control | [6] 95 % of control | [11] 104 % of control | [7] 95 % of control | dose: 300.0 mg/kg/injection, schedule: Q01DX001 (ip), vehicle: saline 103 % of control

C[C@@H]1C[C@H]2[C@@H]3CCC4=CC(=O)C=C[C@]4(C)[C@@]3(F)[C@@H](O)C[C@]2(C)[C@@]1(O)C(=O)CO
inactive: dose: 3.12 mg/kg/injection, schedule: Q01DX009 (ip), vehicle: Klucel (hydroxypropylcellulose) (HPC) 102 % of control | dose: 6.25 mg/kg/injection, schedule: Q01DX009 (ip), vehicle: Klucel (hydroxypropylcellulose) (HPC) 95 % of control | dose: 10.0 mg/kg/injection, schedule: Q01DX Z (sc), vehicle: steriod suspending solution 112 % of control | dose: 12.5 mg/kg/injection, schedule: Q01DX009 (ip), vehicle: Klucel (hydroxypropylcellulose) (HPC) 98 % of control | [12] 111 % of control | dose: 25.0 mg/kg/injection, schedule: Q01DX009 (ip), vehicle: Klucel (hydroxypropylcellulose) (HPC) 96 % of control | dose: 25.0 mg/kg/injection, schedule: Q01DX009 (ip), vehicle: saline sonified 99 % of control | [13] 96 % of control | dose: 25.0 mg/kg/injection, schedule: Q01DX Z (sc), vehicle: steriod suspending solution 112 % of control | dose: 37.5 mg/kg/injection, schedule: Q04DX003 (ip), vehicle: saline with Tween-80 93 % of control | dose: 50.0 mg/kg/injection, schedule: Q01DX009 (ip), vehicle: Klucel (hydroxypropylcellulose) (HPC) 91 % of control | dose: 50.0 mg/kg/injection, schedule: Q01DX009 (ip), vehicle: saline sonified 99 % of control | [14] 107 % of control | dose: 50.0 mg/kg/injection, schedule: Q01DX Z (sc), vehicle: steriod suspending solution 110 % of control | [9] 95 % of control | [1] 91 % of control | dose: 100.0 mg/kg/injection, schedule: Q01DX009 (ip), vehicle: saline sonified 106 % of control | [2] 102 % of control

CCN(CC)CCCCN(C)c1ccccc1
inactive: dose: 12.5 mg/kg/injection, schedule: Q01DX009 (ip), vehicle: saline with Tween-80 89 % of control | dose: 12.5 mg/kg/injection, schedule: Q04DX003 (ip), vehicle: acetone 93 % of control | dose: 25.0 mg/kg/injection, schedule: Q01DX009 (ip), vehicle: saline with Tween-80 97 % of control | dose: 25.0 mg/kg/injection, schedule: Q04DX003 (ip), vehicle: acetone 89 % of control | dose: 50.0 mg/kg/injection, schedule: Q01DX009 (ip), vehicle: saline with Tween-80 97 % of control | dose: 50.0 mg/kg/injection, schedule: Q04DX003 (ip), vehicle: acetone 98 % of control

CCCC(C(=O)OCCN(CC)CC)(c1ccccc1)c1ccccc1
inactive: dose: 6.25 mg/kg/injection, schedule: Q01DX009 (ip), vehicle: saline 106 % of control | [12] 92 % of control | dose: 12.5 mg/kg/injection, schedule: Q04DX003 (ip), vehicle: saline 102 % of control | [13] 93 % of control | dose: 25.0 mg/kg/injection, schedule: Q04DX003 (ip), vehicle: saline 116 % of control | [14] 93 % of control | dose: 50.0 mg/kg/injection, schedule: Q04DX003 (ip), vehicle: saline 100 % of control | dose: 100.0 mg/kg/injection, schedule: Q04DX003 (ip), vehicle: saline 102 % of control

O=C1NC(=S)N/C1=C\c1ccco1
inactive: dose: 25.0 mg/kg/injection, schedule: Q01DX001 (ip), vehicle: saline 100 % of control | dose: 50.0 mg/kg/injection, schedule: Q01DX001 (ip), vehicle: saline 100 % of control | dose: 100.0 mg/kg/injection, schedule: Q01DX001 (ip), vehicle: saline 98 % of control and 100 % of control

CCOC(=O)c1[nH]c(=S)[nH]c1C(=O)OCC
inactive: dose: 5.0 mg/kg/injection, schedule: Q01DX001 (ip), vehicle: saline 102 % of control | dose: 10.0 mg/kg/injection, schedule: Q01DX001 (ip), vehicle: saline 102 % of control | dose: 20.0 mg/kg/injection, schedule: Q01DX001 (ip), vehicle: saline 104 % of control | dose: 40.0 mg/kg/injection, schedule: Q01DX001 (ip), vehicle: saline 94 % of control | dose: 80.0 mg/kg/injection, schedule: Q01DX001 (ip), vehicle: saline 95 % of control

CC(C)C1N=C(N)N=C(N)N1c1ccc(Cl)c(Cl)c1 (stereo not drawn)
inactive: [10] 105 % of control | [11] 96 % of control

O=[N+]([O-])c1cccc(S/N=C/c2ccccc2O)c1
inactive: [6] 102 % of control | [7] 97 % of control | [8] 108 % of control

Source: PubChem BioAssay AID248 (DTP/NCI, 2004)
